Measurements from patent US20250368647A1, “NITROGEN CONTAINING CONDENSED 2,3-DIHYDROQUINAZOLINONE COMPOUNDS AS NAV1.8 INHIBITORS” (GLAXOSMITHKLINE INTELLECTUAL PROPERTY DEVELOPMENT LIMITED, priority 2022, published 2025).

Each compound was assayed against human Nav1.8 (Homo sapiens (Human), UniProt Q9Y5Y9) (assay: QPatch 48 HTX voltage-clamp electrophysiology, half inactivation state (V1/2) protocol, HEK293-Nav1.8 cells). Settings: HEK293 cells expressing human Nav1.8, human Navβ1 and human TREK1, P2 current.
Chain of human Nav1.8 (Q9Y5Y9 whole entry): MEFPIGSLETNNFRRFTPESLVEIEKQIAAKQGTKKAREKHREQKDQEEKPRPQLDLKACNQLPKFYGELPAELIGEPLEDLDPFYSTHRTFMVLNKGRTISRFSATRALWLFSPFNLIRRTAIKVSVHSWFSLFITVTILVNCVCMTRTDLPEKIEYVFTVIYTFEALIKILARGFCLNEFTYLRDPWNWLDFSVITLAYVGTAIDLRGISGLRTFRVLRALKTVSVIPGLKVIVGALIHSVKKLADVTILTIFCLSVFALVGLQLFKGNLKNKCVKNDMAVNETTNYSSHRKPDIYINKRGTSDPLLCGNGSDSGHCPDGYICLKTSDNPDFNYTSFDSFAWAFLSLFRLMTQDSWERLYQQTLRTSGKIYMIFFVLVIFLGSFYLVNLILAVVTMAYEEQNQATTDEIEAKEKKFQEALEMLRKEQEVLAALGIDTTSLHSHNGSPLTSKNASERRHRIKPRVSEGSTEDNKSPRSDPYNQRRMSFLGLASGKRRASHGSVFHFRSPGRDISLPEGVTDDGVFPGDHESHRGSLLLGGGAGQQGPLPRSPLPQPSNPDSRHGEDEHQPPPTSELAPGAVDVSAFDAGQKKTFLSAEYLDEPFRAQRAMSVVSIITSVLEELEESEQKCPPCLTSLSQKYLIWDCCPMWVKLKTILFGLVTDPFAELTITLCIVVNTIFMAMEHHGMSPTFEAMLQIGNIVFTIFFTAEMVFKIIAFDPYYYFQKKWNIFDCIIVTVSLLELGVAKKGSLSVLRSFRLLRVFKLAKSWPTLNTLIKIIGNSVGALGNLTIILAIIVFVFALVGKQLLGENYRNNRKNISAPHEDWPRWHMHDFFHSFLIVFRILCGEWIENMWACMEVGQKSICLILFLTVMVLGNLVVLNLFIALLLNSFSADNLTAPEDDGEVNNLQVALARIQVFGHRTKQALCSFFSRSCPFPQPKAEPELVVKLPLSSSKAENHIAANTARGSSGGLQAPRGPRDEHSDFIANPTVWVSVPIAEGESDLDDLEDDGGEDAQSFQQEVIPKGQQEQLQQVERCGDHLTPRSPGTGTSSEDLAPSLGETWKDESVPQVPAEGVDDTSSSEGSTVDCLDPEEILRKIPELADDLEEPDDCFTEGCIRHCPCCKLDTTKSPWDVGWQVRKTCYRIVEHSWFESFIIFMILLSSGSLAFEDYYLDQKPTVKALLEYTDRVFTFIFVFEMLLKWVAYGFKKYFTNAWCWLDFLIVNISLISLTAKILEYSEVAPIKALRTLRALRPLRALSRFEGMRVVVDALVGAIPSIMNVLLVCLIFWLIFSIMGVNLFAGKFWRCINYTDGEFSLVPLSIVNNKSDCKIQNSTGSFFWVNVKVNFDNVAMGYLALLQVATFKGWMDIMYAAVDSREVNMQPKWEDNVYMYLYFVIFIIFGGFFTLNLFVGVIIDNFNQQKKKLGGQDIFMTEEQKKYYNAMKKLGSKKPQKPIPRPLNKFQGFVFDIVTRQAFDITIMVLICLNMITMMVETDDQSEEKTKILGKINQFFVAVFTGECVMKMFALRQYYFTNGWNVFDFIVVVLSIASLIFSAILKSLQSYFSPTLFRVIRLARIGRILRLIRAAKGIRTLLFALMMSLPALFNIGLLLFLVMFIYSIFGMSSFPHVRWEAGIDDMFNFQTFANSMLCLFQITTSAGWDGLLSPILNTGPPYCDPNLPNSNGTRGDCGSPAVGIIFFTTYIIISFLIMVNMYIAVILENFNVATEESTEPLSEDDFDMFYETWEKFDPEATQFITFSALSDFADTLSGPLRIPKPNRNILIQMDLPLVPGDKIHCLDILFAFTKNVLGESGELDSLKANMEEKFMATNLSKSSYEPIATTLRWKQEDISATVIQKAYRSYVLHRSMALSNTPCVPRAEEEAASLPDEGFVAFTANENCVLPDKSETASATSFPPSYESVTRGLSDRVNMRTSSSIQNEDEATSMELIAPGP
Chain of human Nav1.8 (Q07699 19-218 partner): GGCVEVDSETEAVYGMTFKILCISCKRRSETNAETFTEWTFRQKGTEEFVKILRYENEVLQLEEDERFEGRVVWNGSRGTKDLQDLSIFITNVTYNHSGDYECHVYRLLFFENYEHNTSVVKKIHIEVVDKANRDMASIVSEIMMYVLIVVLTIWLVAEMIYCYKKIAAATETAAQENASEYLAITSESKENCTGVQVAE
Format: cell-based
Protocol: Human embryonic kidney 293 cells (HEK293) expressing human Nav1.8, human Navβ1 and human TREK1 (HEK293-Nav1.8) were grown in T150 cell culture flasks at 37° C., 5% CO2 incubator. HEK293-Nav1.8 were passaged every 2-3 days when confluency reached 80-90% in T150 cell culture flasks.
Pharmacological assessment of compounds of the invention was performed using the QPatch 48 HTX electrophysiological platform. HEK293-Nav1.8 cells were prepared on the day of use by removing culture media, washing in DPBS, adding Accutase (2 mL to cover the surface, aspirate 1 mL then 1-2 minutes at 37° C.) followed by addition of CHO-SFM II to stop the enzyme digestion and in order to obtain a suspension of 3×10^6 cell/mL.
Compounds of the invention were prepared in an extracellular solution of the following composition: NaCl (145 mM), KCl (4 mM), CaCl2) (2 mM), MgCl (2 mM), HEPES (1 mM), Glucose (10 mM), pH 7.4 with NaOH Osmolality 300 mOsM/L. An intracellular solution of the following composition was used: CsF (115 mM), CsCl (20 mM), NaCl (5 mM), EGTA (10 mM), HEPES (10 mM), Sucrose (20 mM), pH 7.2 with CsOH Osmolality 310 mOsm/L.
Utilizing the voltage-clamp mode in the QPatch 48 HTX system a half inactivation state voltage protocol (V1/2) was used to determine pharmacological activity of compounds of the invention at Nav1.8 ion channels. A V1/2 protocol was utilized with the following voltage steps: a holding voltage of −100 mV was established followed by a 20 ms voltage step to 0 mV (P1), followed by an inactivating voltage step at −46 mV for 8 seconds, followed by a step to −100 mV for 20 ms, before a 20 ms step to 0 mV (P2), then returned to the holding voltage of −100 mV. This voltage protocol was repeated at a frequency of every 15 seconds, the current magnitude was quantified at the P2 step throughout the recording. Inhibition of the measured current amplitude with compounds of the invention was analyzed by fitting a 4-6 points dose-response curve allowing determination of the fifty percent inhibition concentration (IC50). P2 currents were normalized according to measurements made at baseline (Baseline, vehicle only), after compound (Input, at each test concentration), and after positive reference compound (FullResponse, to achieve complete block), fit to the following equation: […]
To assess current run-down over the course of the experiment vehicle-only wells were utilized and the normalized current with vehicle-only (n.IVEH) was determined. To correct the compound response for run-down, the currents were corrected according to the following formula: […]
Compound inhibition was fitted to the following Hill Equation to estimate the half maximal inhibition concentration (IC50)
[formula] • where Y is the normalized run-down corrected inhibition relative to the vehicle control (equivalent to n.IRD_Correct), C the test compound concentration, IC50 the concentration of test compound to inhibit the sodium current by 50%, and h the Hill coefficient.
For O=C1c2cc(C(F)(F)F)ncc2N2CN1c1ccc(=O)[nH]c1CCCCc1cc(F)ccc12 [Example 40, 8-Fluoro-2-(trifluoromethyl)-10,11,12,13-tetrahydro-19H-5,18-methanobenzo[l]dipyrido[3,4-b:3′,2′-f][1,5]diazocyclotridecine-15,19(14H)-dione], the “Nav1.8, pIC50” value was 6.0.
For Cl.O=C1c2cc(F)c(C(F)(F)F)cc2N2CN1c1ccc(=O)[nH]c1CCNCc1cc(Cl)ccc12 [Example 66, 8-Chloro-2-fluoro-3-(trifluoromethyl)-10,11,12,13-tetrahydro-19H-5,18-methanodibenzo[c,f]pyrido[3,2-j][1,5,9]triazacyclotridecine-15,19(14H)-dione hydrochloride], the “Nav1.8, pIC50” value was 8.2.
For N#Cc1cc2c(cc1Cl)C(=O)N1CN2c2ccc(F)cc2CNCCc2[nH]c(=O)ccc21 [Example 55, 2-Chloro-8-fluoro-15,19-dioxo-10,11,12,13,14,15-hexahydro-19H-5,18-methano-dibenzo[c,f]pyrido[3,2-j][1,5,9]triazacyclotridecine-3-carbonitrile], the “Nav1.8, pIC50” value was 7.2.
O=C1c2ccc(C(F)(F)F)cc2N2CN1c1ccc(=O)[nH]c1CCCCCc1cc(F)ccc12 [Example 8, 3^4-Fluoro-2^7-(trifluoromethyl)-1^1,1^2,2^1,2^2,2^3,2^4-hexahydro-2(3,1)-quinazolina-1(5,6)-pyridina-3(1,2)-benzenacyclooctaphane-1^2,2^4-dione] was tested, and the “Nav1.8, pIC50” value was 8.4.
For N#Cc1cc2c(cc1F)C(=O)N1CN2c2ccc(F)cc2CCCNc2[nH]c(=O)ccc21 [Example 95, 2,8-Difluoro-15,19-dioxo-10,11,12,13,14,15-hexahydro-19H-5,18-methanodibenzo[f,i]pyrido-[2,3-b][1,4,8]triazacyclotridecine-3-carbonitrile], the “Nav1.8, pIC50” value was 7.5.
Cl.O=C1c2cc(F)c(F)cc2N2CN1c1ccc(=O)[nH]c1CCCNCc1c2ccc(F)c1Cl [Example 109, 3^3-Chloro-2^6,2^7,3^4-trifluoro-1^1,1^2,2^1,2^2,2^3,2^4-hexahydro-5-aza-2(3,1)-quinazolina-1(5,6)-pyridina-3(1,2)-benzenacyclooctaphane-1^2,2^4-dione hydrochloride] was tested, and the “Nav1.8, pIC50” value was 6.8.
In the case of O=C1c2cc(C(F)(F)F)cnc2N2CN1c1ccc(=O)[nH]c1CCCCCc1cc(F)ccc12 [Example 23, 3^4-Fluoro-2^6-(trifluoromethyl)-1^1,1^2,2^1,2^2,2^3,2^4-hexahydro-2(3,1)-pyrido[2,3-d]pyrimidina-1(5,6)-pyridina-3(1,2)-benzenacyclooctaphane-1^2,2^4-dione], the “Nav1.8, pIC50” value is reported as 7.2.
C[C@@H]1NCCCc2[nH]c(=O)ccc2N2CN(c3cc(C(F)(F)F)c(F)cc3C2=O)c2ccc(F)cc21 [Example 137, (4S)-2^6,3^4-Difluoro-4-methyl-2^7-(trifluoromethyl)-1^1,1^2,2^1,2^2,2^3,2^4-hexahydro-5-aza-2(3,1)-quinazolina-1(5,6)-pyridina-3(1,2)-benzenacyclooctaphane-1^2,2^4-dione] was tested, and the “Nav1.8, pIC50” value was 6.6.
With Cl.N#Cc1cc2c(cc1Cl)C(=O)N1CN2c2ccc(F)cc2CCCNc2[nH]c(=O)ccc21 [Example 100, 2-Chloro-8-fluoro-15,19-dioxo-10,11,12,13,14,15-hexahydro-19H-5,18-methano-dibenzo[f,i]pyrido[2,3-b][1,4,8]triazacyclotridecine-3-carbonitrile, hydrochloride] the “Nav1.8, pIC50” value was 7.5.

Same assay, conditions: HEK293 cells expressing human Nav1.8, human Navβ1 and human TREK1, P2 current, read-out: Nav1.8, pIC50 (converted)
An IC50 of 31.6 nM was found for C[C@H]1NCCc2[nH]c(=O)ccc2N2CN(c3cc(C(F)(F)F)c(F)cc3C2=O)c2ccc(F)cc21 [Example 118, (10R)-2,8-difluoro-10-methyl-3-(trifluoromethyl)-10,11,12,13-tetrahydro-19H-5,18-methanodibenzo[c,f]pyrido[3,2-j][1,5,9]triazacyclotridecine-11(10H)-dione] in this work.
An IC50 of 126 nM was found for C[C@@H]1NCCc2[nH]c(=O)ccc2N2CN(c3ccc(C(F)(F)F)cc3C2=O)c2ccc(F)cc21 [Example 116, (10S)-8-fluoro-10-methyl-2-(trifluoromethyl)-10,11,12,13-tetrahydro-19H-5,18-methanodibenzo[c,f]pyrido[3,2-j][1,5,9]triazacyclotridecine-15,19(14H)-dione] in this work.
